Test results as given in patent EP0197829A1, “5H-pyrido[3',4':4,5]pyrrolo[3,2-c]pyridine derivatives, process for their preparation and their antitunour activity” (SANOFI, priority 1985, dated 1986).
Where two headings read alike, the source gives them in different places.

Columns and labels:
leucémie P 388 = type: in vivo, souris hybrides CDF1
Source text: (§1) L'activité antitumorale a été testée in vivo sur différentes tumeurs selon le protocole général suivant : Toutes les souris mâles ou femelles sont inoculées par voie intrapéritonéale au jour Jo avec une quantité déterminée de cellules tumorales viables, variable selon la tumeur.
(§2) Elles sont ensuite réparties en différents lots. Chaque lot correspondant aux animaux traités par le produit à tester à une dose déterminée est composé de lO souris. Dans ce cas, le produit à tester est dissous dans l'eau distillée et il est administré, pendant n jours (J1-Jn) variables selon le protocole choisi, par voie intrapéritonéale à raison de 0,1 ml par lO g de poids des souris traitées, les doses du produit administré étant précisées dans les tableaux ci-dessous.
(§3) Le lot "Contrôle négatif", correspondant aux animaux qui ne sont pas traités par un produit, comprend 2 √N animaux, N étant égal au nombre total de souris traitées par un produit.
(§4) Enfin, tous lés essais sont conduits parallèlement à l'étude d'un lot appelé "Contrôle positif" de 10 animaux qui est traité par une molécule active, variable selon le protocole choisi, dans les mêmes conditions que les lots traités par le produit à tester, afin de valider l'essai.
(§5) L'activité antitumorale est évaluée en considérant l'augmentation du temps de survie des animaux traités par rapport à celui des animaux du lot "Contrôle négatif" selon la formule : • Jour médian de survie des animaux traités à une T/C = dose donnée de produit x 100 • Jour médian de survie des animaux "Contrôle négatif"
(§6) Un composé est considéré comme étant actif lorsque la valeur du rapport T/C est égale ou supérieure à 125 % selon le protocole retenu. Il est toxique lorsque cette valeur est égale ou inférieure à 85 %. Le produit est également considéré comme toxique lorsque la variation pondérale, exprimée en grammes et calculée par la formule : Poids moyen du lot mesuré au jour 5 - poids moyen du même lot au jour 1, est égale ou inférieure à -4g . a) Test de la leucémie P 388 (GERAN et al., Cancer Chemother, 1972, 2, 07-57).
Les essais sont effectués avec des souris hybrides CDF1 inoculées par voie intrapéritonéale avec […] leucémiques de la lignée P 388. Le composé à tester est administré pendant 5 jours (Jl-J5). Le contrôle positif du test est le 5-fluorouracile qui est administré dans les mêmes conditions.
[…] Un composé est considéré comme étant actif lorsque le rapport T/C est supérieur à 127 %.

leucémie L 1210 = assay: L 1210 leukemia test in vivo; parameters: species or system souris hybrides CDF1; settings: for Survivants: at day J 60
Source text: as §1, §2, §3, §4, §5, §6
b) Test de la leucémie L 1210 (GERAN et al., Cancer Chemother, 1972, 2, 07-57).
Les essais sont effectués avec des souris hybrides CDF1 inoculées avec 10^5 cellules leucémiques de la lignée L 1210. Le composé à tester est administré pendant 5 jours (J1-J5). Le contrôle positif du test est le 5-fluorouracile administré dans les mêmes conditions. Le nombre d'animaux survivants est évalué au jour J 60. Un composé est considéré comme étant actif lorsque le rapport T/C est supérieur ou égal à 125 %.

mélanome B 16 = assay: B 16 melanoma test in vivo; parameters: species or system souris hybrides BDF1; Jour médian de survie: unit not given here; settings: for Survivants: at day J 60
Source text: as §1, §2, §3, §4, §5, §6
c) Test du mélanome B 16 (GERAN et al., Cancer Chemother, 1972, 2, 07-57).
Les essais sont effectués avec des souris hybrides BDF1 inoculées avec O,5 ml d'un homogénat de mélanome B 16 réalisé à partir de 1 g de tumeur dans 10 ml de sérum physiologique. Le composé à tester est administré pendant 9 jours (J1-J9). Le contrôle positif du test est le Cis- platine administré dans les mêmes conditions. Le nombre d'animaux survivants est évalué au jour J 60. Un composé est considéré comme étant actif lorsque le rapport T/C est supérieur ou égal à 125 %.

[1] = 5 mg/kg i.p. J1-J5, at day J 40
[2] = 10 mg/kg i.p. J1-J5, at day J 40
[3] = 20 mg/kg i.p. J1-J5, at day J 40
[4] = 40 mg/kg i.p. J1-J5, at day J 40
[5] = 80 mg/kg i.p. J1-J5, at day J 40
[6] = 1,25 mg/kg i.p. J1-J5, at day J 40
[7] = 2,5 mg/kg i.p. J1-J5, at day J 40

CCN(CC)CCCNc1ncc(C)c2c1c1cnccc1n2C [Dérivé N° 4, [(diéthylamino-3 propyl-1)amino]-1 diméthyl-4,5 5-H pyrido[3',4':4,5]pyrrolo[3,2-c]pyridine]
Jour médian de survie (leucémie P 388; 5 mg/kg i.p. J1-J5): 14,25 | T/C % (leucémie P 388; 5 mg/kg i.p. J1-J5): 130% | Survivants (leucémie P 388; [1]): 0/10 | Jour médian de survie (leucémie P 388; 10 mg/kg i.p. J1-J5): 16,13 | T/C % (leucémie P 388; 10 mg/kg i.p. J1-J5): 147% | Survivants (leucémie P 388; [2]): 0/10 | Jour médian de survie (leucémie P 388; 20 mg/kg i.p. J1-J5): 18,0 | T/C % (leucémie P 388; 20 mg/kg i.p. J1-J5): 164% | Survivants (leucémie P 388; [3]): 0/10 | Jour médian de survie (leucémie P 388; 40 mg/kg i.p. J1-J5): 18,75 | T/C % (leucémie P 388; 40 mg/kg i.p. J1-J5): 172% | Survivants (leucémie P 388; [4]): 0/10 | Jour médian de survie (leucémie P 388; 50 mg/kg i.p. J1-J5): 25 | T/C % (leucémie P 388; 50 mg/kg i.p. J1-J5): 207% | Survivants (leucémie P 388; 50 mg/kg i.p. J1-J5, à J 42): 3/10 à J 42 | Jour médian de survie (leucémie P 388; 80 mg/kg i.p. J1-J5): 8,9 | T/C % (leucémie P 388; 80 mg/kg i.p. J1-J5): 81% | Survivants (leucémie P 388; [5]): 0/10 | Jour médian de survie (leucémie P 388; 1,25 mg/kg i.p. J1-J5): 12,6 | T/C % (leucémie P 388; 1,25 mg/kg i.p. J1-J5): 115% | Survivants (leucémie P 388; [6]): 0/10 | Jour médian de survie (leucémie P 388; 2,5 mg/kg i.p. J1-J5): 14,25 | T/C % (leucémie P 388; 2,5 mg/kg i.p. J1-J5): 130% | Survivants (leucémie P 388; [7]): 0/10 | Jour médian de survie (leucémie L 1210; 5 mg/kg i.p. J1-J5): 12,75 | T/C % (leucémie L 1210; 5 mg/kg i.p. J1-J5): 138% | Survivants (leucémie L 1210; 5 mg/kg i.p. J1-J5): 0 | Jour médian de survie (leucémie L 1210; 15 mg/kg i.p. J1-J5): 13,75 | T/C % (leucémie L 1210; 15 mg/kg i.p. J1-J5): 149% | Survivants (leucémie L 1210; 15 mg/kg i.p. J1-J5): 0 | Jour médian de survie (leucémie L 1210; 30 mg/kg i.p. J1-J5): 17,25 | T/C % (leucémie L 1210; 30 mg/kg i.p. J1-J5): 188% | Survivants (leucémie L 1210; 30 mg/kg i.p. J1-J5): 0 | Jour médian de survie (leucémie L 1210; 60 mg/kg i.p. J1-J5): 18,0 | T/C % (leucémie L 1210; 60 mg/kg i.p. J1-J5): 196% | Survivants (leucémie L 1210; 60 mg/kg i.p. J1-J5): 1 | Jour médian de survie (leucémie L 1210; 80 mg/kg i.p. J1-J5): 9,1 | T/C % (leucémie L 1210; 80 mg/kg i.p. J1-J5): 99% | Survivants (leucémie L 1210; 80 mg/kg i.p. J1-J5): 0 | Jour médian de survie (leucémie L 1210; 2,5 mg/kg i.p. J1-J5): 10,9 | T/C % (leucémie L 1210; 2,5 mg/kg i.p. J1-J5): 118% | Survivants (leucémie L 1210; 2,5 mg/kg i.p. J1-J5): 0 | Jour médian de survie (mélanome B 16; 20 mg/kg i.p. J1-J9): 28 | T/C % (mélanome B 16; 20 mg/kg i.p. J1-J9): 99% | Survivants (mélanome B 16; 20 mg/kg i.p. J1-J9): 0 | Jour médian de survie (mélanome B 16; 30 mg/kg i.p. J1-J9): 43,0 | T/C % (mélanome B 16; 30 mg/kg i.p. J1-J9): 152% | Survivants (mélanome B 16; 30 mg/kg i.p. J1-J9): 4 | Jour médian de survie (mélanome B 16; 40 mg/kg i.p. J1-J9): 53,0 | T/C % (mélanome B 16; 40 mg/kg i.p. J1-J9): 188% | Survivants (mélanome B 16; 40 mg/kg i.p. J1-J9): 5 | Jour médian de survie (mélanome B 16; 50 mg/kg i.p. J1-J9): 39,0 | T/C % (mélanome B 16; 50 mg/kg i.p. J1-J9): 138% | Survivants (mélanome B 16; 50 mg/kg i.p. J1-J9): 0 | Jour médian de survie (mélanome B 16; 60 mg/kg i.p. J1-J9): 24,0 | T/C % (mélanome B 16; 60 mg/kg i.p. J1-J9): 85% | Survivants (mélanome B 16; 60 mg/kg i.p. J1-J9): 0

Cc1cnc(NCCCN(C)C)c2c1[nH]c1ccncc12 [Dérivé N° 3, [(diméthylamino-3 propyl-1)amino]-1 méthyl-4 5-H pyrido[3',4':4,5]pyrrolo[3,2-c]pyridine]
Jour médian de survie (leucémie P 388; 5 mg/kg i.p. J1-J5): 16,25 | T/C % (leucémie P 388; 5 mg/kg i.p. J1-J5): 147% | Survivants (leucémie P 388; [1]): 0 | Jour médian de survie (leucémie P 388; 10 mg/kg i.p. J1-J5): 17,75 | T/C % (leucémie P 388; 10 mg/kg i.p. J1-J5): 161% | Survivants (leucémie P 388; [2]): 0 | Jour médian de survie (leucémie P 388; 20 mg/kg i.p. J1-J5): 20,0 | T/C % (leucémie P 388; 20 mg/kg i.p. J1-J5): 181% | Survivants (leucémie P 388; [3]): 0 | Jour médian de survie (leucémie P 388; 40 mg/kg i.p. J1-J5): 19,3 | T/C % (leucémie P 388; 40 mg/kg i.p. J1-J5): 175% | Survivants (leucémie P 388; [4]): 1 | Jour médian de survie (leucémie P 388; 80 mg/kg i.p. J1-J5): 7,3 | T/C % (leucémie P 388; 80 mg/kg i.p. J1-J5): 66% | Survivants (leucémie P 388; [5]): 0 | Jour médian de survie (leucémie P 388; 0,625 mg/kg i.p. J1-J5): 13,1 | T/C % (leucémie P 388; 0,625 mg/kg i.p. J1-J5): 119% | Survivants (leucémie P 388; 0,625 mg/kg i.p. J1-J5, at day J 40): 0 | Jour médian de survie (leucémie P 388; 1,25 mg/kg i.p. J1-J5): 14,1 | T/C % (leucémie P 388; 1,25 mg/kg i.p. J1-J5): 128% | Survivants (leucémie P 388; [6]): 0 | Jour médian de survie (leucémie P 388; 2,5 mg/kg i.p. J1-J5): 15,0 | T/C % (leucémie P 388; 2,5 mg/kg i.p. J1-J5): 136% | Survivants (leucémie P 388; [7]): 0 | Jour médian de survie (leucémie L 1210; 5 mg/kg i.p. J1-J5): 14,0 | T/C % (leucémie L 1210; 5 mg/kg i.p. J1-J5): 152% | Survivants (leucémie L 1210; 5 mg/kg i.p. J1-J5): 0 | Jour médian de survie (leucémie L 1210; 10 mg/kg i.p. J1-J5): 16,25 | T/C % (leucémie L 1210; 10 mg/kg i.p. J1-J5): 177% | Survivants (leucémie L 1210; 10 mg/kg i.p. J1-J5): 0 | Jour médian de survie (leucémie L 1210; 20 mg/kg i.p. J1-J5): 15,6 | T/C % (leucémie L 1210; 20 mg/kg i.p. J1-J5): 170% | Survivants (leucémie L 1210; 20 mg/kg i.p. J1-J5): 0 | Jour médian de survie (leucémie L 1210; 40 mg/kg i.p. J1-J5): 9,25 | T/C % (leucémie L 1210; 40 mg/kg i.p. J1-J5): 100% | Survivants (leucémie L 1210; 40 mg/kg i.p. J1-J5): 0 | Jour médian de survie (leucémie L 1210; 50 mg/kg i.p. J1-J5): 8,2 | T/C % (leucémie L 1210; 50 mg/kg i.p. J1-J5): 89% | Survivants (leucémie L 1210; 50 mg/kg i.p. J1-J5): 0 | Jour médian de survie (leucémie L 1210; 1,25 mg/kg i.p. J1-J5): 11,75 | T/C % (leucémie L 1210; 1,25 mg/kg i.p. J1-J5): 128% | Survivants (leucémie L 1210; 1,25 mg/kg i.p. J1-J5): 0 | Jour médian de survie (leucémie L 1210; 2,5 mg/kg i.p. J1-J5): 12,90 | T/C % (leucémie L 1210; 2,5 mg/kg i.p. J1-J5): 140% | Survivants (leucémie L 1210; 2,5 mg/kg i.p. J1-J5): 0 | Jour médian de survie (mélanome B 16; 5 mg/kg i.p. J1-J9): 29 | T/C % (mélanome B 16; 5 mg/kg i.p. J1-J9): 125% | Survivants (mélanome B 16; 5 mg/kg i.p. J1-J9): 0 | Jour médian de survie (mélanome B 16; 20 mg/kg i.p. J1-J9): 29,3 | T/C % (mélanome B 16; 20 mg/kg i.p. J1-J9): 126% | Survivants (mélanome B 16; 20 mg/kg i.p. J1-J9): 0 | Jour médian de survie (mélanome B 16; 40 mg/kg i.p. J1-J9): 9,8 | T/C % (mélanome B 16; 40 mg/kg i.p. J1-J9): 42% | Survivants (mélanome B 16; 40 mg/kg i.p. J1-J9): 0
